Laboratory results taken from patent publication US20130296393A1, “METHOD FOR CONTROLLING CLUBROOT” (ISHIHARA SANGYO KAISHA, LTD., priority 2011, published 2013).

Experiments:
Type in all cases: in vivo
Plasmodiophora brassicae [1] = assay: Cabbage clubroot control test, pot test, cyazofamid vs chlorothalonil (Example 3 / Comparative Example 3); set-up: key to Disease control value: control value = (1 − treated/control severity) × 100; key to Disease severity: severity = Σ(plants × index 0-4)/(plants × 4) × 100; conditions: for Disease control value / Disease severity: 57 days after settled planting
Text: (§1) Disease severity={Σ(number of each index of diseased plants×disease index)/(number of plants surveyed×4)}×100
(§2) Disease control value={1−(treatment disease severity/control disease severity)}×100
(§3) 0: No adhesion of clubroot, 1: clubroot adhesion to lateral root, 2: clubroot adhesion to the entire lateral root or clubroot adhesion to a part of tap root, 3: adhesion of large clubroot to tap root, and 4: clubroot adhesion to the entire tap root.
A spore suspension of Plasmodiophora brassicae (fungus density: 1×10^5 fungi/g dry soil) was inoculated into a sterilization soil adjusted to pH of 6.0 with Sandoseto and after introducing the resulting test soil into a 1/5000 a pot, a cabbage (variety: Okina) seedling grown in a cell seedling tray (128 cells/seedling box) was settled-planted by establishing five plantings for each test section having a size of 0.02 m^2 for one plant. Immediately, 4 days, 7 days and 14 days after settled planting, the chemical solution for spraying prepared by the same method as in Example 1(1) was drenched into the soil in a ratio of 250 ml/plant. Fifty-seven days after the settled planting, the number of each index of clubroot adhesion to the root was investigated. For comparison, the same test was carried out on a control section where a soil drench treatment with the chemical solution for spraying was not applied.
A chemical solution for spraying in a concentration of 800 ppm was prepared by diluting 40% chlorothalonil (Daconil 1000 [trade name], manufactured by SDS K.K.) with water.
The test was carried out by the same procedure as in Example 3 except that the chemical solution (cyazofamid) for spraying was replaced by the chemical solution (chlorothalonil) for spraying prepared in Comparative Example 3(1).
(§4) The disease severity and disease control value of Example 3 and Comparative Example 3 were determined by the same methods as in Example 1 and Comparative Example 1. In addition, the weight of cabbage in the aerial part was measured. Furthermore, the test result was shown by the average value of five plantings.

Plasmodiophora brassicae [2] = assay: Cabbage clubroot control test, pot test (Example 1 / Comparative Example 1); conditions: 0.3% dust formulation 30 kg/10 a soil incorporation just before settled planting
Experimental: A chemical solution for spraying at 50 ppm was prepared by diluting 9.4% w/w cyazofamid (Ranman [trade name] flowable, manufactured by Ishihara Sangyo Kaisha Ltd.) with water.
A spore suspension of Plasmodiophora brassicae (fungus density: 1×10^5 fungi/g dry soil) was inoculated into a sterilization soil adjusted to pH of 6.2 with Sandoseto and after introducing the resulting test soil into a 1/5000 a pot, a cabbage (variety: Okina) seedling grown in a cell seedling tray (128 cells/seedling box) was settled-planted by establishing five plantings for each test section having a size of 0.02 m^2 per one plant. Just after the settled planting, 3 days, 7 days, 10 days and 14 days after the settled planting, the chemical solution for spraying prepared in (1) was applied by soil drench at a ratio of 250 ml/plant. Sixty days after the settled planting, the number of each index of clubroot adhesion to the root was investigated. For comparison, the same test was carried out on a control section where a soil drench treatment with the chemical solution for spraying was not applied.
(§5) The test was carried out by the same method as in Example 1(2) except that in place of the soil drench treatment with the chemical solution for spraying, 30 kg/10 a of 0.3% flusulfamide (dust formulation of Nebijin [trade name], manufactured by Mitsui Chemicals Agro, Inc.) was applied to the test soil just before settled planting and incorporated into the soil by means of a small mixer (interfusion depth: 15 cm).
In Example 1 and Comparative Example 1, the adhesion of clubroot was investigated by pulling out the root of cabbage. The adhesion of clubroot was investigated by calculating the disease severity using the following formula. In addition, the weight of cabbage in the aerial part was measured. Furthermore, the test result was shown by the average value of five plantings.
as §1, §2, §3

Plasmodiophora brassicae [3] = assay: Influence of rainfall on clubroot control effect in cabbage (Example 4 / Comparative Example 4); conditions: pot; for Weight in the aerial part / Disease control value / Disease severity: 0.3% dust formulation 30 kg/10 a soil incorporation just before settled planting; for Disease control value / Disease severity: 67 days after settled planting
Experimental: as §1, §2, §3
The test was carried out by the same method as in Example 3 except for preparing an area subjected to a rainfall treatment of 20 mm by means of a rainfall apparatus (a treatment at a rate of 10 mm/hour for 2 hours) the day before treatment, and an area not subjected to the rainfall treatment. Sixty-seven days after the settled planting, the number of each index of clubroot adhesion to the root was investigated. For comparison, the same test was carried out on a control section where a soil drench treatment with the chemical solution for spraying was not applied.
as §5, with “4” for “1(2)”, “before the” for “before”
as §4, with “4” for “3”

[4] = 800 ppm soil drench 250 ml/plant 4 days after settled planting
[5] = 800 ppm soil drench 250 ml/plant 7 days after settled planting
[6] = 800 ppm soil drench 250 ml/plant 14 days after settled planting
[7] = 800 ppm soil drench 250 ml/plant just after settled planting
[8] = 800 ppm soil drench after settled planting
[9] = with rainfall treatment, dust formulation soil incorporation just before settled planting

Q: Which results are given for `N#Cc1c(Cl)c(Cl)c(Cl)c(C#N)c1Cl` [chlorothalonil]?
A: Weight in the aerial part (Plasmodiophora brassicae [1]; [4]): 92 g; Disease control value (Plasmodiophora brassicae [1]; [4]): 25; Disease severity (Plasmodiophora brassicae [1]; [4]): 60; Weight in the aerial part (Plasmodiophora brassicae [1]; [5]): 69 g; Disease control value (Plasmodiophora brassicae [1]; [5]): 0; Disease severity (Plasmodiophora brassicae [1]; [5]): 90; Weight in the aerial part (Plasmodiophora brassicae [1]; [6]): 70 g; Disease control value (Plasmodiophora brassicae [1]; [6]): 0; Disease severity (Plasmodiophora brassicae [1]; [6]): 90; Weight in the aerial part (Plasmodiophora brassicae [1]; [7]): 96 g; Disease control value (Plasmodiophora brassicae [1]; [7]): 56; Disease severity (Plasmodiophora brassicae [1]; [7]): 35; Control effect (Plasmodiophora brassicae [1]; [8]): a control effect which is sufficient for practical use was not obtained; Effect of the disease on weight in the aerial part (Plasmodiophora brassicae [1]; [8]): greatly affected by the disease

Q: What does the source list for `O=[N+]([O-])c1ccc(NS(=O)(=O)c2ccc(Cl)c(C(F)(F)F)c2)c(Cl)c1` [flusulfamide]?
A: Weight in the aerial part (Plasmodiophora brassicae [2]): 173 g; Disease control value (Plasmodiophora brassicae [2]; 60 days after settled planting): 100; Disease severity (Plasmodiophora brassicae [2]; 60 days after settled planting): 0; Weight in the aerial part (Plasmodiophora brassicae [3]; with rainfall treatment 20 mm): 104 g; Disease control value (Plasmodiophora brassicae [3]; with rainfall treatment 20 mm): 50; Disease severity (Plasmodiophora brassicae [3]; with rainfall treatment 20 mm): 35; Control effect (Plasmodiophora brassicae [3]; [9]): a practical control effect was not obtained; Effect of the disease on weight in the aerial part (Plasmodiophora brassicae [3]; [9]): greatly affected by the disease; Weight in the aerial part (Plasmodiophora brassicae [3]; without rainfall treatment): 118 g; Disease control value (Plasmodiophora brassicae [3]; without rainfall treatment): 100; Disease severity (Plasmodiophora brassicae [3]; without rainfall treatment): 0
